This note sets out measurements from ChEMBL document CHEMBL5058643, “Data for DCP probe BI-2081” (2022).

For series [1], the target named is 5-hydroxytryptamine receptor 1B (Homo sapiens) (UniProt P28222). The series can be described thus: 5HT1B(H) Eurofins SafetyScreen44 (BI). Conditions: filed as antagonist, Compound concentration 10.0 uM; call rule not given here.
Series [2] addresses 5-hydroxytryptamine receptor 2B (Homo sapiens) (UniProt P41595). The series can be described thus: 5HT2B/H AG Eurofins SafetyScreen44 (BI). The following applies: filed as agonist, Compound concentration 10.0 uM.
Series [3] addresses T1, Alpha-1A adrenergic receptor (Homo sapiens) (UniProt P35348).
T1 sequence (whole entry): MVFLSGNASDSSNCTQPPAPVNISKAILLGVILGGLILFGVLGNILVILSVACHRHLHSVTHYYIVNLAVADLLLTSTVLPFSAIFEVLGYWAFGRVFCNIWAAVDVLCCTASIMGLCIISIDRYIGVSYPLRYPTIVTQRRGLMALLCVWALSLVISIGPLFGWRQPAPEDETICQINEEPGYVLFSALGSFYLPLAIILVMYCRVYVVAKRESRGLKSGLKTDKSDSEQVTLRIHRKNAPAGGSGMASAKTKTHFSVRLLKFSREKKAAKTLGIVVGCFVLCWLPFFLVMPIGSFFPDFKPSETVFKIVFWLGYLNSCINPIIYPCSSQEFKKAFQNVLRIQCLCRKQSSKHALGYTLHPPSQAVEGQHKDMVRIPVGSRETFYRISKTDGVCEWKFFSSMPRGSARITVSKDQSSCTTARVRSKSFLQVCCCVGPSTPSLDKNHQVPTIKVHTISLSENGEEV
Kind of series: ALPHA1AH_ANTAG Eurofins SafetyScreen44 (BI). The following applies: filed as antagonist, Compound concentration 10.0 uM.

Series [4] has as its target Voltage-dependent L-type calcium channel subunit alpha-1C (dihydropyridine site) (Rattus norvegicus, UniProt P22002). The series can be described thus: CA+/DHPSI/R Eurofins SafetyScreen44 (BI). Further details: mode of action inhibitor. Conditions: rat brain, probe [3H](+)PN200-110, compound concentration 10 uM, read-out: % Ctrl.
The target of series [5] is D(2) dopamine receptor (Homo sapiens) (UniProt P14416). The series can be described thus: D2SH_AGON Eurofins SafetyScreen44 (BI). The following applies: filed as agonist, Compound concentration 10.0 uM.
Series [6] addresses Glucocorticoid receptor (Homo sapiens) (UniProt P04150). The series can be described thus: GCORTICOID/H Eurofins SafetyScreen44 (BI). Conditions: Compound concentration 10.0 uM.
Series [7] concerns the target Histamine H1 receptor (Homo sapiens) (UniProt P35367). Kind of series: H1/PYRIL/HS Eurofins SafetyScreen44 (BI). Conditions: Compound concentration 10.0 uM.
Series [8] addresses T2, Muscarinic acetylcholine receptor M1 (Homo sapiens) (UniProt P11229).
T2 sequence (whole entry): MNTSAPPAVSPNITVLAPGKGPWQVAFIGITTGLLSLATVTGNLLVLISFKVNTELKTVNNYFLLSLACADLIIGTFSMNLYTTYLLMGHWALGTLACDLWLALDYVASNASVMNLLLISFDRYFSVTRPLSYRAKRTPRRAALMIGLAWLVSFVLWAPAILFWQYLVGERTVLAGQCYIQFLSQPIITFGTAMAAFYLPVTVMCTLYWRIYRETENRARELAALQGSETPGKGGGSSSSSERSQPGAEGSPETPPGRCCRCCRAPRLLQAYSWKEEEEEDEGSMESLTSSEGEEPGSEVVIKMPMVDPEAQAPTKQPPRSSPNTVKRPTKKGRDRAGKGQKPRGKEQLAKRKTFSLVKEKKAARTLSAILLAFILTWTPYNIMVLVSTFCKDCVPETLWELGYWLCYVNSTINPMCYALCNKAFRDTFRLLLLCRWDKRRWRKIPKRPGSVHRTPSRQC
The series can be described thus: M1/H Eurofins SafetyScreen44 (BI). Conditions: Compound concentration 10.0 uM.

Series [9] deals with Muscarinic acetylcholine receptor M3 (Homo sapiens, UniProt P20309). Kind of series: GPCRScan assay: inhibition of M3. On the set-up: radioligand conc. used [nm] 0.3 – 1.0, parental cells stable CHO.
Chain of Muscarinic acetylcholine receptor M3 (P20309 whole entry): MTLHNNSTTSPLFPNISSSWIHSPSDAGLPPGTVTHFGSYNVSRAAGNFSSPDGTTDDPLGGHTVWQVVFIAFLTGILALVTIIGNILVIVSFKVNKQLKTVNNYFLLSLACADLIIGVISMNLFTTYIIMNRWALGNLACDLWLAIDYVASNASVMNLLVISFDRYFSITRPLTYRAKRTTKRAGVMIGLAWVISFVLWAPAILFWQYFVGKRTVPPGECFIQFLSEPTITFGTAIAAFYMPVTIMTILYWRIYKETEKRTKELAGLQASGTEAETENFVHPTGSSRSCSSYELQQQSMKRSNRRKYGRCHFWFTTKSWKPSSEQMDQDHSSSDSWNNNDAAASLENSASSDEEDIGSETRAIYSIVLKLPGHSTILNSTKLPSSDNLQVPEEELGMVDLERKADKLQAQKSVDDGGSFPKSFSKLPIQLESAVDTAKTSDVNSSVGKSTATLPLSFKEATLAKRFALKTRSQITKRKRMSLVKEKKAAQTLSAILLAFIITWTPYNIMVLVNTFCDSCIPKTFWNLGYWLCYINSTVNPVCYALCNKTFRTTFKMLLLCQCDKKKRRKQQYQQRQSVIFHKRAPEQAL
The target of series [10] is T3, Alpha-1D adrenergic receptor (Homo sapiens) (UniProt P25100).
T3 sequence (whole entry): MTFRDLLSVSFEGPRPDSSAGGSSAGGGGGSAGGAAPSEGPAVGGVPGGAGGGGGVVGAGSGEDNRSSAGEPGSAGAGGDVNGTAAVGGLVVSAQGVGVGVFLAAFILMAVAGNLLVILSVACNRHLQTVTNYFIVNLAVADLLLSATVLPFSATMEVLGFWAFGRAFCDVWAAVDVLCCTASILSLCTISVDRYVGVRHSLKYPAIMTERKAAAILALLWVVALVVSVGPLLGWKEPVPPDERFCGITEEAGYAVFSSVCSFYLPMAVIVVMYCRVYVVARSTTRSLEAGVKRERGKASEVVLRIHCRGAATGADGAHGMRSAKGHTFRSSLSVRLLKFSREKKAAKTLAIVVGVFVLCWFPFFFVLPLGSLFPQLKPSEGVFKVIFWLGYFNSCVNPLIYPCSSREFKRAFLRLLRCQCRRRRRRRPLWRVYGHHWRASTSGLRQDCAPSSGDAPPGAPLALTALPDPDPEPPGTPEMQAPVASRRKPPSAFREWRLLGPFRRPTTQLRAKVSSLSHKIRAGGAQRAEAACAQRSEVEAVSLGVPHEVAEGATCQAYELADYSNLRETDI
Kind of series: ALPHA1D/H Eurofins SafetyScreen44 (BI). The following applies: Compound concentration 10.0 uM.

For series [11], the target named is B2 bradykinin receptor (Homo sapiens) (UniProt P30411). The series can be described thus: B2/H Eurofins SafetyScreen44 (BI). The following applies: filed as antagonist, Compound concentration 10.0 uM.
Chain of B2 bradykinin receptor (Homo sapiens) (P30411 whole entry): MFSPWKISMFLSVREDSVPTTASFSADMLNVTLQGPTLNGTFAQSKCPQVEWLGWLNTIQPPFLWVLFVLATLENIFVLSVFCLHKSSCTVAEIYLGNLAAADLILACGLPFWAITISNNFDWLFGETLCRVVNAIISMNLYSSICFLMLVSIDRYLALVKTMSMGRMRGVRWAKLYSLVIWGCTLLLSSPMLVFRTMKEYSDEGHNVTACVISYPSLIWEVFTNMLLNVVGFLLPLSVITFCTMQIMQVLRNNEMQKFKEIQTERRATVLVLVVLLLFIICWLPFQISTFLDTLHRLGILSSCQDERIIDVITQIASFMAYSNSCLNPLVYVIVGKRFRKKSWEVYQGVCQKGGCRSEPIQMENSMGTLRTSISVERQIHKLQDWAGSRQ
For series [12], the target named is Beta-2 adrenergic receptor (Homo sapiens) (UniProt P07550). The series can be described thus: BETA2/HU Eurofins SafetyScreen44 (BI). The following applies: Compound concentration 10.0 uM.
Series [13] deals with D(1A) dopamine receptor (Homo sapiens) (UniProt P21728). The series can be described thus: D1/HU Eurofins SafetyScreen44 (BI). The following applies: Compound concentration 10.0 uM.
Chain of D(1A) dopamine receptor (Homo sapiens) (P21728 whole entry): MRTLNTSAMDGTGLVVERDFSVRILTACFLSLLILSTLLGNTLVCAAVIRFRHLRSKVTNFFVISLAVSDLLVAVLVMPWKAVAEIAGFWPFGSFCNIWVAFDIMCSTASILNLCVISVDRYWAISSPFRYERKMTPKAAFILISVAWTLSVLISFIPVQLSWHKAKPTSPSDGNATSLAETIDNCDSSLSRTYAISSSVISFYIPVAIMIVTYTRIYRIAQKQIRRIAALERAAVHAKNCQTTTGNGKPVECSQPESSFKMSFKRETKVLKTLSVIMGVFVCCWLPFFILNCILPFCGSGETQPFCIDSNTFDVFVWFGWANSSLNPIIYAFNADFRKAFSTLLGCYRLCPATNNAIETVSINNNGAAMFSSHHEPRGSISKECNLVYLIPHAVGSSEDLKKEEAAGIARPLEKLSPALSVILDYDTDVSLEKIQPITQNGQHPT
The target in series [14] is Endothelin-1 receptor (Homo sapiens) (UniProt P25101). The series can be described thus: ETA/HU Eurofins SafetyScreen44 (BI). Conditions: Compound concentration 10.0 uM.
Chain of Endothelin-1 receptor (Homo sapiens) (P25101 whole entry): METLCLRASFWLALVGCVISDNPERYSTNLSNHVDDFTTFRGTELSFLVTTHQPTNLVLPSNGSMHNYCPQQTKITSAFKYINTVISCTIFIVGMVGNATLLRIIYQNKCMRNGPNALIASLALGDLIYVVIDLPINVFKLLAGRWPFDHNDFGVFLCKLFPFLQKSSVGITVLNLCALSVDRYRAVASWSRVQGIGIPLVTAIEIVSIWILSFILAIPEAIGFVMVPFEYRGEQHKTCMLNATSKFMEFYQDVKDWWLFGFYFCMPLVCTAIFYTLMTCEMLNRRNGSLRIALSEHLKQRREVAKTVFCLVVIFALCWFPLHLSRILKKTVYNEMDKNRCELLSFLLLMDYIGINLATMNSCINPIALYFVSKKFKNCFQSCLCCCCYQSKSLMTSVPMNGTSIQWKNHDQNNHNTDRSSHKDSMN
Series [15] deals with Glucocorticoid receptor (Homo sapiens) (UniProt P04150). Kind of series: GLUCOCORTICO Eurofins SafetyScreen44 (BI). Conditions: Compound concentration 10.0 uM.
Chain of Glucocorticoid receptor (Homo sapiens) (P04150 whole entry): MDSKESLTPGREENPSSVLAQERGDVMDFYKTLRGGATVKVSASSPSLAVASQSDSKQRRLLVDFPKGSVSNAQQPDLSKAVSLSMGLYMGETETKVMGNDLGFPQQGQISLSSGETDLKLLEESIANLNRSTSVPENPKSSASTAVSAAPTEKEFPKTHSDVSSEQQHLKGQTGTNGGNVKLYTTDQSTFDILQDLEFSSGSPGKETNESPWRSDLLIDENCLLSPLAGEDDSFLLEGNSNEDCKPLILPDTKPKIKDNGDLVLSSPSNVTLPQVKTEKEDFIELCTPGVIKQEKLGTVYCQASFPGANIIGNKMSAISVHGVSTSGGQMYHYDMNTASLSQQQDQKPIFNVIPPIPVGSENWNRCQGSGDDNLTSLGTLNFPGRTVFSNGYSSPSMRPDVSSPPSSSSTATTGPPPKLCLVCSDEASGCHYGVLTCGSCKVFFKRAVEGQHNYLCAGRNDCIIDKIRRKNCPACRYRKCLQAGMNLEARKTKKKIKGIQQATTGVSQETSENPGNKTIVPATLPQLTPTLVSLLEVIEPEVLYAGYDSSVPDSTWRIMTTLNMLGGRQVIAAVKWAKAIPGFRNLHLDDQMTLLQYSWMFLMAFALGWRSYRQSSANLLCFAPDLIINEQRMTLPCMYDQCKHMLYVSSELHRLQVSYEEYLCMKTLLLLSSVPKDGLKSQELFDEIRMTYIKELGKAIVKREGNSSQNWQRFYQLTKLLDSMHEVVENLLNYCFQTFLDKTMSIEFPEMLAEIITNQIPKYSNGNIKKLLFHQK
In series [16] the target is Melatonin receptor type 1A (Homo sapiens) (UniProt P48039). Kind of series: MT1/H Eurofins SafetyScreen44 (BI). Conditions: Compound concentration 10.0 uM.
The target in series [17] is 3',5'-cyclic-AMP phosphodiesterase 4A (Rattus norvegicus) (UniProt P54748). The series can be described thus: ROLIPRAM/R Eurofins SafetyScreen44 (BI). Conditions: Compound concentration 10.0 uM.
Chain of 3',5'-cyclic-AMP phosphodiesterase 4A (Rattus norvegicus) (P54748 whole entry): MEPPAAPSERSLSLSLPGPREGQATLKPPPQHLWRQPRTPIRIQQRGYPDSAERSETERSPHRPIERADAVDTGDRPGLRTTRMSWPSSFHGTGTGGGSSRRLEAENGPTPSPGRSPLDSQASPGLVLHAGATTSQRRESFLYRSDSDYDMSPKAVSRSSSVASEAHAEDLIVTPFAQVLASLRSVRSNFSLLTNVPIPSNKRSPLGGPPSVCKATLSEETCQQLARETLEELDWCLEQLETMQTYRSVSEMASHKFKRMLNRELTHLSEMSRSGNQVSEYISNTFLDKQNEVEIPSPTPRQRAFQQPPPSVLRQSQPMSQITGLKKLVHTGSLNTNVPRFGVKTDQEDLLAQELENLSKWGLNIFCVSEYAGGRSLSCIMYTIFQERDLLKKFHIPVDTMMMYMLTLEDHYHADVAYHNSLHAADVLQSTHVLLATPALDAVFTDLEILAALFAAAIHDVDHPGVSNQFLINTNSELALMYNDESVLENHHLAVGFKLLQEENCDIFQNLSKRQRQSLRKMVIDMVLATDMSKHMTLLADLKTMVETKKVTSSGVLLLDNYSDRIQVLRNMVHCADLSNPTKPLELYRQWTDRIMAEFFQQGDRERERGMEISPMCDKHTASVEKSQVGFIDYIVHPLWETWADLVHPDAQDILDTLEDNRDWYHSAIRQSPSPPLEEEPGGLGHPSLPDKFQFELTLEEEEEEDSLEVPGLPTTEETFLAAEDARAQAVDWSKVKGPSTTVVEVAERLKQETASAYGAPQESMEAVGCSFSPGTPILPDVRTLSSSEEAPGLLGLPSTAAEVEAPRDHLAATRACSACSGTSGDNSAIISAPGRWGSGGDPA
The target of series [18] is Neuropeptide Y receptor type 2 (Homo sapiens) (UniProt P49146). Kind of series: Y2/HU Eurofins SafetyScreen44 (BI). The following applies: Compound concentration 10.0 uM.
Chain of Neuropeptide Y receptor type 2 (Homo sapiens) (P49146 whole entry): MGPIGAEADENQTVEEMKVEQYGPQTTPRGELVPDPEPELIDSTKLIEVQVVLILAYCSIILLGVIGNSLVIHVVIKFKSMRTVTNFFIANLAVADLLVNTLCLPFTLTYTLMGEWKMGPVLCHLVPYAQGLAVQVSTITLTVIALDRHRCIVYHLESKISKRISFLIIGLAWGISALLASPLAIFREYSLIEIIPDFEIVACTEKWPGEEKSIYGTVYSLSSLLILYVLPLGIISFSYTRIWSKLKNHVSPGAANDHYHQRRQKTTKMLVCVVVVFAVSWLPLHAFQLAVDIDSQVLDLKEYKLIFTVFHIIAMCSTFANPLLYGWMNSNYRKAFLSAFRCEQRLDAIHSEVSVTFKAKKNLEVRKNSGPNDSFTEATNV

By Ki is commonly meant the equilibrium dissociation constant of an inhibitor or competing ligand from its target. Usually pKi stands for the negative decadic logarithm of the Ki, by convention in mol/L.

Chain of 5-hydroxytryptamine receptor 2B (Homo sapiens) (P41595 whole entry): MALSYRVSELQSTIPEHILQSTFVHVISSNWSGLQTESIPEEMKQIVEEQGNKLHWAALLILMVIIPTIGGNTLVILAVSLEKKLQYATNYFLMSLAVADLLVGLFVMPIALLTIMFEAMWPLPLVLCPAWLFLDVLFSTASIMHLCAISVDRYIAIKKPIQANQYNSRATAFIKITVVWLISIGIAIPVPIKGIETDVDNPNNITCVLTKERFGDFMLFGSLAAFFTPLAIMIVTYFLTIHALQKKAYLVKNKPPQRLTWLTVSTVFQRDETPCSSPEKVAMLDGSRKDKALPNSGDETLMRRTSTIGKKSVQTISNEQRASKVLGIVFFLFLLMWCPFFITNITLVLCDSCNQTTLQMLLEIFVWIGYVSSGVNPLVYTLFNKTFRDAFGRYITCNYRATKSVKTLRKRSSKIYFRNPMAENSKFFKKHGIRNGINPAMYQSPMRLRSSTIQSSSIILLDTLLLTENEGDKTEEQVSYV
Chain of 5-hydroxytryptamine receptor 1B (Homo sapiens) (P28222 whole entry): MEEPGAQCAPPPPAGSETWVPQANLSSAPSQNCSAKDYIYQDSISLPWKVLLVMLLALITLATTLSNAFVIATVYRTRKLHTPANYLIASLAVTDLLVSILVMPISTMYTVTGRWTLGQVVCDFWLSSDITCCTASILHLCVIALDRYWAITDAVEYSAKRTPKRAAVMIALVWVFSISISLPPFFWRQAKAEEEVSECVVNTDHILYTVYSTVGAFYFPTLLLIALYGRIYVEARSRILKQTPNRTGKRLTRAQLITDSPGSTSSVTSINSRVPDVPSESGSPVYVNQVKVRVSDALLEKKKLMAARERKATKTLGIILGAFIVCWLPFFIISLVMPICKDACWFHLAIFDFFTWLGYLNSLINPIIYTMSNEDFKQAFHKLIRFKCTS

Turning to `COCCCS(=O)(=O)c1cc(C)c(-c2ccc(F)c3c2CC[C@H]3Oc2ccc3c(c2)OC[C@H]3CC(=O)O)c(C)c1`, the residual activity was 97% in series [1]; 103% in series [2]; 95% in series [3]; 88% in series [5]; 43% in [6]; 87% in series [7]. The residual activity in series [8] is 112%. Further, the activity at 10 µM in series [4] is 90% (not active).
With `Cc1cc(OCCC(C)(C)O)cc(C)c1-c1ccc(F)c2c1CC[C@H]2Oc1ccc2c(c1)OC[C@H]2CC(=O)O`, the Ki in [9] is over 10 µM. In addition, in [9], the pKi is given as under 5. Moreover, the residual activity in series [10] was 85%; in series [11], 103%; in [12], 109%; in [13] it was 81%; in series [14], 91%; in series [15], 67%. Also, the residual activity in [16] is 98%; in series [17], 105%; in [18] it was 99%.
